Assay results as given in BindingDB's records for doi:10.1021/bi00839a042 (Michigan State University, 1969).

Molecular target: T1, Complement C1s subcomponent (Homo sapiens, UniProt P09871)
T1 sequence (P09871 whole entry): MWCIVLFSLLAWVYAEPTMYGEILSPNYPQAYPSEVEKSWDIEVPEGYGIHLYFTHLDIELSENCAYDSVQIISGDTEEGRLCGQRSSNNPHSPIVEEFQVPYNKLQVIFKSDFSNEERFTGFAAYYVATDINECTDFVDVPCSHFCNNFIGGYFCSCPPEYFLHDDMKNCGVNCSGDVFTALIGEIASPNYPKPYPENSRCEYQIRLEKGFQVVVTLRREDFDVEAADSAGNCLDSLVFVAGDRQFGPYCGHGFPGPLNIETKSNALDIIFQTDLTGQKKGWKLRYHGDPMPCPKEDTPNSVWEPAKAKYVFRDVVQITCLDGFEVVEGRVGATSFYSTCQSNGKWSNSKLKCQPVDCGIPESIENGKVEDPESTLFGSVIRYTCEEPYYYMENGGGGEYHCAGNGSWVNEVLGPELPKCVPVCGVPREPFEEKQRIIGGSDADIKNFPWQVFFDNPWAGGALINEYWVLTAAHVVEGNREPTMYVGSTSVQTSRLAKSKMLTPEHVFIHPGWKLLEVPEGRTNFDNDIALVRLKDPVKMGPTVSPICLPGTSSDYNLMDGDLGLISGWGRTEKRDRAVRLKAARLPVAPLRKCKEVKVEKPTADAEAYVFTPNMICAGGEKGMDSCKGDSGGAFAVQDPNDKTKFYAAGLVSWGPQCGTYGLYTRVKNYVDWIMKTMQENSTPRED
Assay: Enzymatic Assay
Details: pH 8.05; 25.50 °C
Description: All readings were made in a Hitachi-Coleman ultraviolet-visible 101 spectrophotometer.

| SMILES | Ki |
| --- | --- |
| CC(C)(C)CNC(=N)N [2,2'-Dimethyl-1-guanidinopropane] | 13400 µM |
| Cc1nc(NC(=N)N)nc2ccccc12 [2-Guanidino-4-methylguinazoline] | 76.5 µM |
| N=C(N)Nc1ccccc1 [Alpha-Phenylguanidine] | 548 µM |
| N=C(N)NN [CAS_2146] | 18100 µM |
| O=C(NC(Cc1ccc(O)cc1)C(=O)O)c1ccccc1 [N-z-L-Tyr] | 370 µM |
| N=C(N)c1ccc([N+](=O)[O-])cc1 [p-Nitrobenzamidine] | 92500 µM |
| N=C(N)c1ccccc1 [Benzamidine] | 603 µM |
| N=C(N)NCC(=O)O [Guanidinacetic] | 4370 µM |
| O=C(CCl)NC(Cc1ccc(O)cc1)C(=O)O [N-Chloroacetyl-L-tyrosine] | 1120 µM |
